The record followed here is ChEMBL document CHEMBL1147322, “X-ray crystal structure of acrovestone, a cytotoxic principle from Acronychia pedunculata” (1989).

Common to all, as to assay type: functional
One assay concerns L1210. As to the kind of experiment: Cytotoxicity against mouse L1210 cells. The following applies: read-out: ED50 (the source's name).
The subject of a further assay is KB. The assay is described as follows: Cytotoxicity against human KB cells at 0.5 ug/ml.
In a further assay the test system is A549. The assay is described as follows: Cytotoxicity against human A549 cells. Conditions: read-out: ED50 (the source's name).
For a further assay, the system named is P388. As to the kind of experiment: Cytotoxicity against mouse P388 cells. The following applies: read-out: ED50 (the source's name).

In brackets after ≈: the same amount, converted by molar mass.

`COc1c(CC=C(C)C)c(O)c([C@H](CC(C)C)c2c(O)c(CC=C(C)C)c(O)c(C(C)=O)c2O)c(O)c1C(C)=O` [ACROVESTONE]: the EC50 in the assay with L1210 is 2.95 µg/mL (≈ 5.32 µM); with A549, 0.98 µg/mL (≈ 1.77 µM); with P388, 3.28 µg/mL (≈ 5.91 µM). For the same molecule, in the assay on KB, the inhibition at 0.5 µg/mL was 100%.
